Patent US20240374546A1, “USES AND METHODS FOR PROMOTING INCREASED MITOCHONDRIAL MASS AND FUNCTION” (Brightseed, Inc., priority 2022, published 2024)

Tests used:
HNF4α [1] = molecular target: T1, HNF4α (Homo sapiens, UniProt P41235); experiment: Cell-based human insulin promoter reporter assay sensitive to HNF4α activity
T1 sequence (P41235 1-474): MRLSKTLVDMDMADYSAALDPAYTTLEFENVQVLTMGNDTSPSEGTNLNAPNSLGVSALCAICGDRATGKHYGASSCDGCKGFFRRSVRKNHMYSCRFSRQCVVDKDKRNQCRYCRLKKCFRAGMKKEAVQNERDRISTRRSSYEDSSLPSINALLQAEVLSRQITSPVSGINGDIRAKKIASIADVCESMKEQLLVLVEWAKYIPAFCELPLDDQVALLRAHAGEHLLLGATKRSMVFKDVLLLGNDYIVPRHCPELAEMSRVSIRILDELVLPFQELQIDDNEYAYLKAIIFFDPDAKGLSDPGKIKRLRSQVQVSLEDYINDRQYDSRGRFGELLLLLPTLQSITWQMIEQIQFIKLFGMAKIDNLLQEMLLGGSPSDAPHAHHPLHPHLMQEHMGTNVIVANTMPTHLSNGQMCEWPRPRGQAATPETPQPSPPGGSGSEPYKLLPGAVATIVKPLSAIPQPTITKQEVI
Source text: HNF4α is a nuclear receptor transcription factor that controls the expression of downstream genes that are important in multiple aspects of cellular metabolism. The classical view of HNF4α has been that its ligand binding pocket (LBP) is constitutively occupied by a fatty acid that plays a structural rather than regulatory role. However, it has been shown recently that the fatty acids in the HNF4α LBP are exchangeable in the context of full length HNF4α, particularly inside the cell. […] Using the assay in high-throughput screening, it was discovered HNF4α antagonists and more recently agonists. […] Previously, it was shown that intraperitoneal (IP) administration of NCT reversed hepatic steatosis in obese mice fed a high fat diet through a previously unsuspected pathway involving regulation by HNF4α of dihydroceramide synthesis.

palmitate-loaded cells = experiment: Fat clearance from palmitate-loaded cells; assay type: cell-based; conditions: in vitro
HNF4α [2] = molecular target: T1, HNF4α; conditions: cited from earlier work

SMILES | HNF4α agonist activity (HNF4α [1]) | fat clearance from palmitate-loaded cells (palmitate-loaded cells) | HNF4α activator activity of known drugs (HNF4α [2])
COc1cc(/C=C/C(=O)NCCc2ccc(O)cc2)ccc1O [NFT, N-transferuloyltyramine] | strong HNF4α agonists | induced fat clearance | –
CCN(CCCc1ccccc1)CCCc1ccccc1 [alverine] | – | – | weak HNF4α activators
CC(Cc1cccc(C(F)(F)F)c1)NCCOC(=O)c1ccccc1 (stereo not shown) [benfluorex] | – | – | weak HNF4α activators
